Tests used:
Aedes aegypti mosquito = assay: USDA Petri Dish Method, 3 min exposure to treated glazed tile; format: in vivo; details: glazed tile, 3 min exposure
Description: (§1) Treatments were allowed to dry overnight. USDA Petri Dish Method was used as initial screening protocol. Twenty, 4-6 day old female Aedes aegypti mosquitoes were exposed to each treatment for 3 minutes and then moved to a clean untreated white paper index card. Treatments were replicated a minimum of three times. Mosquito knockdown was evaluated at various intervals through 7 hours after exposure. A small cotton ball soaked in sucrose solution was added on the screen top of the petri-dish as a drinking source. Mortality was evaluated at 24 hours after exposure.
(§2) MATERIALS AND METHODS: Solutions of resmethrin at 1 and 0.5% AI were prepared with and without adjuvant in acetone. […] USDA Petri Dish Method was used as initial screening protocol. Twenty, 4-6 day old female Aedes aegypti mosquitoes were exposed to each treatment for 3 minutes and then moved to a clean untreated white paper index card. Treatments were replicated a minimum of three times. Mosquito knockdown was evaluated at 3 minute intervals for the first 15 minutes and then at 5 minute intervals for the remainder of an hour. A small cotton ball soaked in sucrose solution was added on the screen top of the petri-dish as a drinking source. Mortality was evaluated at 24 hours after exposure.
as §1, with “6” for “7”
as §1, with “5 minute” for “various”, “for the first hour and then at 2, 4 and 6 hours.” for “through 7 hours after exposure.”
Treatments were allowed to dry overnight. USDA Petri Dish Method was used as initial screening protocol. Twenty, 4-6 day old female Aedes aegypti mosquitoes were exposed to each treatment for 3 minutes and then moved to a clean untreated white paper index card. Treatments were replicated a minimum of three times. Mosquito knockdown was evaluated at 3-5 minute intervals for the first hour. A small cotton ball soaked in sucrose solution was then added on the screen top of the petri-dish as a drinking source. Mortality was evaluated at 24 hours after exposure.
as §1, with “intervals through 2 hours after” for “intervals through 7 hours after”, “solution was then added on” for “solution was added on”
Treatments were allowed to dry overnight. USDA Petri Dish Method was used as initial screening protocol. Twenty, 4-6 day old female Aedes aegypti mosquitoes were exposed to each treatment for 3 minutes and then moved to a clean untreated white paper index card. Treatments were replicated a minimum of three times. Mosquito knockdown was evaluated at various hourly intervals. […]

[1] = system: Red Imported Fire ant (RIFA), Solenopsis invicta; assay: Knockdown/mortality of ant workers under continuous exposure on treated glazed tile; format: in vivo; details: Table 52, fipronil/adjuvant in acetone, glazed tile
Text: (§3) Treatments were allowed to dry overnight. […] Treatments were replicated minimum three times.
(§4) Treatments were allowed to dry overnight. […] Treatments were replicated a minimum of three times.

[2] = system: Argentine ant, Linepithema humile; assay: as above; details: Table 49, fipronil/adjuvant in acetone, glazed tile
Outline: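 0.5% AI imidacloprid in acetone, alone or with 0.1, 1.0 or 5.0% additive (benzenepropanoic acid, oleic acid, methyl oleate, methyl linoleate, methyl palmitate or BHA), 1 ml dried overnight on glazed tile (~161 cm^2). Ten workers confined under continuous exposure, water from 3 h; knockdown/mortality scored at intervals and 24 h; ≥3 replicates.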

[3] = system: Odorous House ant, Tapinoma sessile; assay: as above; format: in vivo; details: Table 51, fipronil/adjuvant in acetone, glazed tile
Text: Actual coverage was about 5″×5″ (or 161 cm2) for easy handling. Treatments were allowed to dry overnight. […] Treatments were replicated minimum three times.
as §3, §4
Treatments were allowed to dry overnight. […] Treatments were replicated minimum of three times. […] The results are shown in FIG. 84 (No adjuvant alone treatment was performed).

[4] = system: susceptible/normal German cockroach (Monheim strain), Blattella germanica; assay: Knockdown/mortality of male cockroaches under continuous exposure on treated glazed tile; format: in vivo; details: Table 53, fipronil/adjuvant in acetone, glazed tile, Monheim strain
Description: Treatments were allowed to dry overnight. […] Treatments were replicated a minimum of three times. […]
Treatments were allowed to dry overnight. […] Treatments were replicated a minimum of three times. Cockroach knockdown/mortality was evaluated at 5 minute intervals for the first 60 minutes after exposure and then at 2, 18 and 24 hours.

[5] = system: Culex quinquefasciatus mosquito; assay: USDA Petri Dish Method, 3 min exposure to treated glazed tile (twenty 4-6 day old females); format: in vivo; details: for Average % Mortality after 1 hr / Average % Mortality after 3 hr / Average % Mortality after 5 hr / Average % Mortality after 24 hr: Table 77, carbaryl study, Culex quinquefasciatus; for Average % Mortality after 1 hr: glazed tile, 3 min exposure, adjuvant = Compound A 1% + Compound B 0.5%; for % KD and Mortality 3′ / % KD and Mortality 9′ / % KD and Mortality 15′ / % KD and Mortality 30′ / % KD and Mortality 1 h / % KD and Mortality 24 h: Table 73, in acetone, glazed tiles, 3′ exposure time; for % KD and Mortality 3′: 20 insects (three replicates); for % KD and Mortality 9′ / % KD and Mortality 15′ / % KD and Mortality 30′ / % KD and Mortality 1 h / % KD and Mortality 24 h: 20 insects; for Average % Knockdown & Mortality after 3 min / Average % Knockdown & Mortality after 15 min / Average % Knockdown & Mortality after 30 min / Average % Knockdown & Mortality after 60 min / Average % Knockdown & Mortality after 2 hr / Average % Knockdown & Mortality after 24 hr: in vivo
Description: as §2, with “Culex quinquefasciatus” for “Aedes aegypti”, “source after the 2 hour evaluation.” for “source.”
as §1, with “Culex” for “Aedes aegypti”, “3” for “7”
as §1, with “old female Culex quinquefasciatus mosquitoes were” for “old female Aedes aegypti mosquitoes were”, “intervals through 2 hours after” for “intervals through 7 hours after”, “solution was then added on” for “solution was added on”
as §1, with “Culex quinquefasciatus” for “Aedes aegypti”, “hourly intervals.” for “intervals through 7 hours after exposure.”, “source after 2 hours.” for “source.”

[6] = Table 48, fipronil/adjuvant in acetone
[7] = Table 37, resmethrin/adjuvant in acetone

## N#Cc1nn(-c2c(Cl)cc(C(F)(F)F)cc2Cl)c(N)c1[S+]([O-])C(F)(F)F (centres unmarked) [Fipronil (.0001%)]
Aedes aegypti mosquito; [6]
  Average % Knockdown & Mortality after 15 min: 0%
  Average % Knockdown & Mortality after 30 min: 0%
  Average % Knockdown & Mortality after 60 min: 0%
  Average % Knockdown & Mortality after 24 hr: 9%
Aedes aegypti mosquito; 4 hr, Table 48, fipronil/adjuvant in acetone
  Average % Knockdown & Mortality after 4 hr: 3%
Aedes aegypti mosquito; 6 hr, Table 48, fipronil/adjuvant in acetone
  Average % Knockdown & Mortality after 6 hr: 3%
[1]; 30 min
  Average % Mortality after 30 min: 3%
[1]; 60 min
  Average % Mortality after 60 min: 3%
[1]; 2 hr
  Average % Mortality after 2 hr: 3%
[1]; 3 hr
  Average % Mortality after 3 hr: 6%
[1]; 24 hr
  Average % Mortality after 24 hr: 47%
[2]; 30 min
  Average % Mortality after 30 min: 0%
[2]; 60 min
  Average % Mortality after 60 min: 0%
[2]; 2 hr
  Average % Mortality after 2 hr: 0%
[2]; 3 hr
  Average % Mortality after 3 hr: 0%
[2]; 24 hr
  Average % Mortality after 24 hr: 74%
[3]; 30 min
  Average % Mortality after 30 min: 0%
[3]; 60 min
  Average % Mortality after 60 min: 3%
[3]; 2 hr
  Average % Mortality after 2 hr: 3%
[3]; 24 hr
  Average % Mortality after 24 hr: 54%
[4]; 60 min
  Average % Knockdown & Mortality after 60 min: 0%
[4]; 3 hr
  Average % Knockdown & Mortality after 3 hr: 7%
[4]; 5 hr
  Average % Knockdown & Mortality after 5 hr: 7%
[4]; 24 hr
  Average % Knockdown & Mortality after 24 hr: 7%

## CNC(=O)Oc1cccc2ccccc12 [carbaryl (2.5%)]
[5]
  Average % Mortality after 1 hr: 0%
  Average % Mortality after 3 hr: 0%
  Average % Mortality after 5 hr: 2%
  Average % Mortality after 24 hr: 5%

## CNC(=O)Oc1cccc2ccccc12 [carbaryl (0.1%)]
[5]
  Average % Mortality after 1 hr: 0%
  Average % Mortality after 3 hr: 0%

## CNC(=O)Oc1cccc2c1OC(C)(C)O2 [0.01% = 5 mg Bendiocarb/m^2]
[5]
  % KD and Mortality 3′: 0%
  % KD and Mortality 9′: 0%
  % KD and Mortality 15′: 0%
  % KD and Mortality 30′: 0%
  % KD and Mortality 1 h: 0%
  % KD and Mortality 24 h: 0%

## CC(C)=CC1C(C(=O)OCc2coc(Cc3ccccc3)c2)C1(C)C (centres unmarked) [Resmethrin (0.5%)]
Aedes aegypti mosquito; [7]
  Average % Knockdown & Mortality after 3 min: 0%
  Average % Knockdown & Mortality after 15 min: 0%
  Average % Knockdown & Mortality after 30 min: 0%
  Average % Knockdown & Mortality after 60 min: 0%
  Average % Knockdown & Mortality after 24 hr: 8%
[5]
  Average % Knockdown & Mortality after 3 min: 0%
  Average % Knockdown & Mortality after 15 min: 0%
  Average % Knockdown & Mortality after 30 min: 0%
  Average % Knockdown & Mortality after 60 min: 0%
  Average % Knockdown & Mortality after 2 hr: 0%
  Average % Knockdown & Mortality after 24 hr: 0%

## CC(C)=CC1C(C(=O)OCc2coc(Cc3ccccc3)c2)C1(C)C (centres unmarked) [Resmethrin (1%)]
Aedes aegypti mosquito; [7]
  Average % Knockdown & Mortality after 3 min: 66%
  Average % Knockdown & Mortality after 15 min: 100%
  Average % Knockdown & Mortality after 30 min: 100%
  Average % Knockdown & Mortality after 60 min: 100%
  Average % Knockdown & Mortality after 24 hr: 100%
[5]
  Average % Knockdown & Mortality after 3 min: 0%
  Average % Knockdown & Mortality after 15 min: 2%
  Average % Knockdown & Mortality after 30 min: 13%
  Average % Knockdown & Mortality after 60 min: 11%
  Average % Knockdown & Mortality after 2 hr: 2%
  Average % Knockdown & Mortality after 24 hr: 4%

## CNC(=O)Oc1cccc2c1OC(C)(C)O2 [0.1% = 50 mg Bendiocarb/m^2]
[5]
  % KD and Mortality 3′: 0%
  % KD and Mortality 9′: 0%
  % KD and Mortality 15′: 0%
  % KD and Mortality 30′: 15%
  % KD and Mortality 1 h: 37%
  % KD and Mortality 24 h: 81%

## CNC(=O)Oc1cccc2ccccc12 [carbaryl (5%)]
[5]
  Average % Mortality after 1 hr: 0%
  Average % Mortality after 3 hr: 0%
  Average % Mortality after 5 hr: 0%
  Average % Mortality after 24 hr: 0%

Reference: patent US9028856B2, “Synergistic pesticide compositions” (priority 2008, dated 2015)
